Assay results as given in patent US11285218B2, “Degradation of bromodomain-containing protein 9 (BRD9) by conjugation of BRD9 inhibitors with E3 ligase ligand and methods of use” (Dana-Farber Cancer Institute, Inc., priority 2016, dated 2022).
Entries after “also recorded” stand apart in the source; their conditions may differ.

Key:
[1] = system: MM.1S multiple myeloma line; experiment: ATPlite viability assay, MM.1S; settings: 72 hour treatment, in words
Description: 500 cells/well were plated at a volume of 40 μL/well in white tissue culture treated 384 well assay plates (Thermo Scientific) before DMSO compound stock was added from pre-diluted plates by pin transfer using a Janus Workstation (PerkinElmer, USA). […] Assay plates were allowed to equilibrate to RT for 30 min before reconstituted ATPlite 1 Step reagent (Perkin Elmer) was dispensed at 1:1 volume/well by EL406 automated liquid handler (Biotek, USA).

BRPF1 = target: T1, BRPF1 (Homo sapiens, UniProt P55201); experiment: BromoScan single-point screen; assay type: binding; settings: percent of protein captured on solid support vs control
T1 construct: utilizing DNA-tagged bromodomain and immobilized ligand attached to solid support
Description: (§1) The BromoScan is an assay that measures the engagement of compounds with bromodomain proteins by utilizing DNA-tagged bromodomain and immobilized ligand attached to solid support. In the control test, DNA-tagged bromodomain binds to the ligand and the bromodomain is captured on the solid support. Compounds that compete for the bromodomain binding location on the ligand will prevent the bromodomain from binding, resulting in less protein captured on the solid support.

TAF1(2) = target: T2, TAF1(2) (Homo sapiens, UniProt P21675); experiment: BromoScan single-point screen; assay type: binding; settings: percent of protein captured on solid support vs control
T2 construct: utilizing DNA-tagged bromodomain and immobilized ligand attached to solid support
Description: as §1

BRD3(1) = target: T3, BRD3(1) (Homo sapiens, UniProt Q15059); experiment: BromoScan single-point screen; assay type: binding; settings: percent of protein captured on solid support vs control
T3 construct: utilizing DNA-tagged bromodomain and immobilized ligand attached to solid support
Description: as §1

CREBBP = target: T4, CREBBP (Homo sapiens, UniProt Q92793); experiment: BromoScan single-point screen; assay type: binding; settings: percent of protein captured on solid support vs control
T4 construct: utilizing DNA-tagged bromodomain and immobilized ligand attached to solid support
Description: as §1

BRD3(2) = target: T5, BRD3(2) (Homo sapiens, UniProt Q15059); experiment: BromoScan single-point screen; assay type: binding; settings: percent of protein captured on solid support vs control
T5 construct: utilizing DNA-tagged bromodomain and immobilized ligand attached to solid support
Description: as §1

WDR9(2) = target: T6, WDR9(2) (Homo sapiens, UniProt Q9NSI6); experiment: BromoScan single-point screen; assay type: binding; settings: percent of protein captured on solid support vs control
T6 construct: utilizing DNA-tagged bromodomain and immobilized ligand attached to solid support
Description: as §1

BRD2(1) = target: T7, BRD2(1) (Homo sapiens, UniProt P25440); experiment: BromoScan single-point screen; assay type: binding; settings: percent of protein captured on solid support vs control
T7 construct: utilizing DNA-tagged bromodomain and immobilized ligand attached to solid support
Description: as §1

GCN5L2 = target: T8, GCN5L2 (Homo sapiens, UniProt Q92830); experiment: BromoScan single-point screen; assay type: binding; settings: percent of protein captured on solid support vs control
T8 construct: utilizing DNA-tagged bromodomain and immobilized ligand attached to solid support
Description: as §1

BRPF3 = target: T9, BRPF3 (Homo sapiens, UniProt Q9ULD4); experiment: BromoScan single-point screen; assay type: binding; settings: percent of protein captured on solid support vs control
T9 construct: utilizing DNA-tagged bromodomain and immobilized ligand attached to solid support
Description: as §1

BRD1 = target: T10, BRD1 (Homo sapiens, UniProt O95696); experiment: BromoScan single-point screen; assay type: binding; settings: percent of protein captured on solid support vs control
T10 construct: utilizing DNA-tagged bromodomain and immobilized ligand attached to solid support
Description: as §1

PCAF = target: T11, PCAF (Homo sapiens, UniProt Q92831); experiment: BromoScan single-point screen; assay type: binding; settings: percent of protein captured on solid support vs control
T11 construct: utilizing DNA-tagged bromodomain and immobilized ligand attached to solid support
Description: as §1

BAZ^2B = target: T12, BAZ^2B (Homo sapiens, UniProt Q9UIF8); experiment: BromoScan single-point screen; assay type: binding; settings: percent of protein captured on solid support vs control
T12 construct: utilizing DNA-tagged bromodomain and immobilized ligand attached to solid support
Description: as §1

ATAD2A = target: T13, ATAD2A (Homo sapiens, UniProt Q6PL18); experiment: BromoScan single-point screen; assay type: binding; settings: percent of protein captured on solid support vs control
T13 construct: utilizing DNA-tagged bromodomain and immobilized ligand attached to solid support
Description: as §1

BRD2(2) = target: T14, BRD2(2) (Homo sapiens, UniProt P25440); experiment: BromoScan single-point screen; assay type: binding; settings: percent of protein captured on solid support vs control
T14 construct: utilizing DNA-tagged bromodomain and immobilized ligand attached to solid support
Description: as §1

BRD7 [2] = target: T15, BRD7 (Homo sapiens, UniProt Q9NPI1); experiment: BromoScan single-point screen; assay type: binding; settings: percent of protein captured on solid support vs control
T15 construct: utilizing DNA-tagged bromodomain and immobilized ligand attached to solid support
Description: as §1
T15 sequence (Q9NPI1 131-235 limits assumed): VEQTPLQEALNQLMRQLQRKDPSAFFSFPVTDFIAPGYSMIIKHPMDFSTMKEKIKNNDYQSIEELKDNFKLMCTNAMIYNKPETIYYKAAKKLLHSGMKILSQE

BRDT(2) = target: T16, BRDT(2) (Homo sapiens, UniProt Q58F21); experiment: BromoScan single-point screen; assay type: binding; settings: percent of protein captured on solid support vs control
T16 construct: utilizing DNA-tagged bromodomain and immobilized ligand attached to solid support
Description: as §1

PBRM1(5) = target: T17, PBRM1(5) (Homo sapiens, UniProt Q86U86); experiment: BromoScan single-point screen; assay type: binding; settings: percent of protein captured on solid support vs control
T17 construct: utilizing DNA-tagged bromodomain and immobilized ligand attached to solid support
Description: as §1

BAZ^2A = target: T18, BAZ^2A (Homo sapiens, UniProt Q9UIF9); experiment: BromoScan single-point screen; assay type: binding; settings: percent of protein captured on solid support vs control
T18 construct: utilizing DNA-tagged bromodomain and immobilized ligand attached to solid support
Description: as §1

SMARCA4 = target: T19, SMARCA4 (Homo sapiens, UniProt P51532); experiment: BromoScan single-point screen; assay type: binding; settings: percent of protein captured on solid support vs control
T19 construct: utilizing DNA-tagged bromodomain and immobilized ligand attached to solid support
Description: as §1

TRIM24 (PHD, Bromo.) = target: T20, TRIM24 (PHD, Bromo.) (Homo sapiens, UniProt O15164); experiment: BromoScan single-point screen; assay type: binding; settings: percent of protein captured on solid support vs control
T20 construct: utilizing DNA-tagged bromodomain and immobilized ligand attached to solid support
Description: as §1

TAF1L(2) = target: T21, TAF1L(2) (Homo sapiens, UniProt Q8IZX4); experiment: BromoScan single-point screen; assay type: binding; settings: percent of protein captured on solid support vs control
T21 construct: utilizing DNA-tagged bromodomain and immobilized ligand attached to solid support
Description: as §1

CECR2 = target: T22, CECR2 (Homo sapiens, UniProt Q9BXF3); experiment: BromoScan single-point screen; assay type: binding; settings: percent of protein captured on solid support vs control
T22 construct: utilizing DNA-tagged bromodomain and immobilized ligand attached to solid support
Description: as §1

FALZ = target: T23, FALZ (Homo sapiens, UniProt Q12830); experiment: BromoScan single-point screen; assay type: binding; settings: percent of protein captured on solid support vs control
T23 construct: utilizing DNA-tagged bromodomain and immobilized ligand attached to solid support
Description: as §1

SMARCA2 = target: T24, SMARCA2 (Homo sapiens, UniProt P51531); experiment: BromoScan single-point screen; assay type: binding; settings: percent of protein captured on solid support vs control
T24 construct: utilizing DNA-tagged bromodomain and immobilized ligand attached to solid support
Description: as §1

EP300 = target: T25, EP300 (Homo sapiens, UniProt Q09472); experiment: BromoScan single-point screen; assay type: binding; settings: percent of protein captured on solid support vs control
T25 construct: utilizing DNA-tagged bromodomain and immobilized ligand attached to solid support
Description: as §1

BRDT(1) = target: T26, BRDT(1) (Homo sapiens, UniProt Q58F21); experiment: BromoScan single-point screen; assay type: binding; settings: percent of protein captured on solid support vs control
T26 construct: utilizing DNA-tagged bromodomain and immobilized ligand attached to solid support
Description: as §1

ATAD2B = target: T27, ATAD2B (Homo sapiens, UniProt Q9ULI0); experiment: BromoScan single-point screen; assay type: binding; settings: percent of protein captured on solid support vs control
T27 construct: utilizing DNA-tagged bromodomain and immobilized ligand attached to solid support
Description: as §1

PBRM1(2) = target: T28, PBRM1(2) (Homo sapiens, UniProt Q86U86); experiment: BromoScan single-point screen; assay type: binding; settings: percent of protein captured on solid support vs control
T28 construct: utilizing DNA-tagged bromodomain and immobilized ligand attached to solid support
Description: as §1

[3] = system: 32 members of the human bromodomain family; experiment: BromoScan single-point screen, panel profile; assay type: binding; settings: single-point 1 μM, 32 bromodomains; in words
Description: as §1

BRD7 [4] = target: BRD7 (Homo sapiens, UniProt Q9NPI1); experiment: BRD7 immunoblot in MOLM-13; settings: MOLM-13, 4 hour treatment
Target sequence in this assay (Q9NPI1 whole entry): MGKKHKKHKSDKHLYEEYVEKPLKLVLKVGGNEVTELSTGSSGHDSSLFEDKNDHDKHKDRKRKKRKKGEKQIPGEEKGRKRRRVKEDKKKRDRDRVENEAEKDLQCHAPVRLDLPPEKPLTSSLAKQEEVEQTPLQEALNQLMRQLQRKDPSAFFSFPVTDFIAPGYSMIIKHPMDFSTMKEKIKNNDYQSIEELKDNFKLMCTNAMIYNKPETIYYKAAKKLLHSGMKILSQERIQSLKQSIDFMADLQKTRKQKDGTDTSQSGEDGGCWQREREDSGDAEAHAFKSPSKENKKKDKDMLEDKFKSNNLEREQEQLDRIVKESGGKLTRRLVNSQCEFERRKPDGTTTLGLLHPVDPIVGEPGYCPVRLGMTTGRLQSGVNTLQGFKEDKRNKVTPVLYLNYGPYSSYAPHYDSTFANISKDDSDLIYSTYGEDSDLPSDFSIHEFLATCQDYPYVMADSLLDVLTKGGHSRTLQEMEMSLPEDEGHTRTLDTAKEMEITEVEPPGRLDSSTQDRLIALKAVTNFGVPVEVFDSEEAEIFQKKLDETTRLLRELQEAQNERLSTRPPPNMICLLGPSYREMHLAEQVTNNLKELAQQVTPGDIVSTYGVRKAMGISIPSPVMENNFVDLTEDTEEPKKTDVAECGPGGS
Description: In additional experiments, cells were washed with PBS, before being lysed in RIPA buffer supplemented with 1×HALT™ protease inhibitor cocktail (Thermo Scientific) for 10 min on ice, followed by low-amplitude sonication for 10 seconds at 4° C. […] In soluble material was removed by centrifugation at 20,000×g for 20 min before protein content was quantified by BCA assay (Pierce). […] Blots were imaged using fluorescence-labeled secondary antibodies (LI-COR) on the OdysseyCLxImager (LI-COR).

TRIM33 (PHD, Bromo.) = experiment: BromoScan single-point screen; assay type: binding, human; settings: percent of protein captured on solid support vs control
Description: as §1

T7 sequence (P25440 74-180 limits assumed): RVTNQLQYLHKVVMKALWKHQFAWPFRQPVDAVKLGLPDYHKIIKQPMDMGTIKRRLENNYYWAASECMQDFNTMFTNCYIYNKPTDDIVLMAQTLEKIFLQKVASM
T18 sequence (Q9UIF9 1793-1897 limits assumed): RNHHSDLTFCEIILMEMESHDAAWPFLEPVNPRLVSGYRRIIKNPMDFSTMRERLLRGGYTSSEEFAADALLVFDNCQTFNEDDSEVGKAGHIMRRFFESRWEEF
T25 sequence (Q09472 1049-1156 limits assumed): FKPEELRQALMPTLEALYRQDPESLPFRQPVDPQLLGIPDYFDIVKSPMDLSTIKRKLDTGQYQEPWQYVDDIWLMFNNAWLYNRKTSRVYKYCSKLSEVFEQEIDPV
T22 sequence (Q9BXF3 434-538 limits assumed): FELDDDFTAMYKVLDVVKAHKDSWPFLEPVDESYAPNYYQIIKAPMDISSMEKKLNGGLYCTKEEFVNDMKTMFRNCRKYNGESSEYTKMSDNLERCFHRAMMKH
T3 sequence (Q15059 34-140 limits assumed): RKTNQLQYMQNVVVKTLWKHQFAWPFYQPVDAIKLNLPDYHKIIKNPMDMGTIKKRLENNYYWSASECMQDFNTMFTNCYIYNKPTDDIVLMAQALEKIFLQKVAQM
T2 sequence (P21675 1519-1628 limits assumed): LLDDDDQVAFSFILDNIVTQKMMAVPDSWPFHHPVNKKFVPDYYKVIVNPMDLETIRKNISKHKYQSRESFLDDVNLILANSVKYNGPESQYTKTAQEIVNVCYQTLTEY
T28 sequence (Q86U86 177-287 limits assumed): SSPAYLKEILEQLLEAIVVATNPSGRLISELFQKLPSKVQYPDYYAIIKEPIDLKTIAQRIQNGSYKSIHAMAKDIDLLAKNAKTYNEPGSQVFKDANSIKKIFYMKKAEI
T12 sequence (Q9UIF8 2060-2164 limits assumed): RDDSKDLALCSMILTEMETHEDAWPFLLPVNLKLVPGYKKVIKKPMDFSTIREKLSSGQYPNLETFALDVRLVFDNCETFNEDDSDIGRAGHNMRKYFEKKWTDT
T6 sequence (Q9NSI6 1313-1418 limits assumed): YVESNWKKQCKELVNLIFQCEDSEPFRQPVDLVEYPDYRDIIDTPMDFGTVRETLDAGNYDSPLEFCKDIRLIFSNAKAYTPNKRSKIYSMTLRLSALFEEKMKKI
T5 sequence (Q15059 306-415 limits assumed): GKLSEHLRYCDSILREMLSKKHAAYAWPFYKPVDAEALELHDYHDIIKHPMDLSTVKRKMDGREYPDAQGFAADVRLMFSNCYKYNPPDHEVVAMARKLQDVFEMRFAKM
T21 sequence (Q8IZX4 1517-1626 limits assumed): as the sequence (P21675 1519-1628 limits assumed) above, with V46M, M51V, V102I, L107I counted along it
T27 sequence (Q9ULI0 951-1066 limits assumed): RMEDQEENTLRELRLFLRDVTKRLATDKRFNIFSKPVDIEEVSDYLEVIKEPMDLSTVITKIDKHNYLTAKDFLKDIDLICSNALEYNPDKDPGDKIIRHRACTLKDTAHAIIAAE
T13 sequence (Q6PL18 980-1092 limits assumed): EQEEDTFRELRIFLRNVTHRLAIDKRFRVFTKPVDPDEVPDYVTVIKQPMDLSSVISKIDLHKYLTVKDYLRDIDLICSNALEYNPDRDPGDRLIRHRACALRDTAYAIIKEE
T19 sequence (P51532 1453-1564 limits assumed): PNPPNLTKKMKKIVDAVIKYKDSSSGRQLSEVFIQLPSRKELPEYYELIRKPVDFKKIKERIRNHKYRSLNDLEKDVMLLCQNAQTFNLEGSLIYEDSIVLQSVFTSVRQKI
T17 sequence (Q86U86 653-763 limits assumed): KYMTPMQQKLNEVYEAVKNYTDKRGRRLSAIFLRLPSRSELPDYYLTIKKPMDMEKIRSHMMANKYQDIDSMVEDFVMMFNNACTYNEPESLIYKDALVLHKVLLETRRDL
T20 sequence (O15164 824-1006 limits assumed): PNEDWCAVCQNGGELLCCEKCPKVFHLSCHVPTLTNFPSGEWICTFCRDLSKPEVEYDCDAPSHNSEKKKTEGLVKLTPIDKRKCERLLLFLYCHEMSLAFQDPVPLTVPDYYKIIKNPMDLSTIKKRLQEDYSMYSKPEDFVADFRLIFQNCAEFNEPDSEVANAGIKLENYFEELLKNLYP
T4 sequence (Q92793 1085-1192 limits assumed): as the sequence (Q09472 1049-1156 limits assumed) above, with S47N, I73V, Y93F, S98A counted along it
T11 sequence (Q92831 723-827 limits assumed): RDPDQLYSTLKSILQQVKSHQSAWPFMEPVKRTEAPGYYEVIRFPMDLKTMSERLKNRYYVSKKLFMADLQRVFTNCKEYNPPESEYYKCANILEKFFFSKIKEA
T14 sequence (P25440 344-453 limits assumed): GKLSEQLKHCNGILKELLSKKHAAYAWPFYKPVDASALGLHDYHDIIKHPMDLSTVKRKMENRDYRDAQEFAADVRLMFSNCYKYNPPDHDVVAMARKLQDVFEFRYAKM
T1 sequence (P55201 628-732 limits assumed): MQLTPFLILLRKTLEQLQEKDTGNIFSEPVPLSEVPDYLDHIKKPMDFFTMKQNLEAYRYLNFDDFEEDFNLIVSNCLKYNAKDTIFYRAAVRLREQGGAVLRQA
T24 sequence (P51531 1378-1506 limits assumed): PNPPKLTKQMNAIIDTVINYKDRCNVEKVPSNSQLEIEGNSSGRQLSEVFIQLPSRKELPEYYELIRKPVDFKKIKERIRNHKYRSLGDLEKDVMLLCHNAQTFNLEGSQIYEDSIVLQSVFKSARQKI
T8 sequence (Q92830 728-832 limits assumed): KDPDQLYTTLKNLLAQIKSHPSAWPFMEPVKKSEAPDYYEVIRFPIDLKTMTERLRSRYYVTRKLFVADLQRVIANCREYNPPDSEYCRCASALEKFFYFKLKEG
T10 sequence (O95696 562-666 limits assumed): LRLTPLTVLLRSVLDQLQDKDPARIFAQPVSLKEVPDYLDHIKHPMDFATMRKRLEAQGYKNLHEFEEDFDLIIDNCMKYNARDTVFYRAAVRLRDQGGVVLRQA
T9 sequence (Q9ULD4 589-693 limits assumed): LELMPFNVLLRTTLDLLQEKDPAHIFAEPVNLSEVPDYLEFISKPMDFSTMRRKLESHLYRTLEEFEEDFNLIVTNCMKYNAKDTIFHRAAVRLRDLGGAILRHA

In the case of `COc1cc(-c2cn(C)c(=O)c3cnccc23)cc(OC)c1CN(C)CC(=O)NCCOCCOCCNc1cccc2c1C(=O)N(C1CCC(=O)NC1=O)C2=O` (centres unmarked) [Compound I-25], the efficacy on viability [1] is reported as “comparable efficacy”, the “% Ctrl @ 1 μM” value (BRPF1) is reported as 75 % Ctrl and the “% Ctrl @ 1 μM” value (TAF1(2)) is reported as 63 % Ctrl. The “% Ctrl @ 1 μM” value (BRD3(1)) was 87 % Ctrl, the “% Ctrl @ 1 μM” value (CREBBP) was 88 % Ctrl and the “% Ctrl @ 1 μM” value (BRD3(2)) was 85 % Ctrl. For the same compound, the “% Ctrl @ 1 μM” value (WDR9(2)) was 86 % Ctrl, the “% Ctrl @ 1 μM” value (BRD2(1)) was 81 % Ctrl and the “% Ctrl @ 1 μM” value (GCN5L2) was 77 % Ctrl. For the same compound, the “% Ctrl @ 1 μM” value (BRPF3) was 86 % Ctrl, the “% Ctrl @ 1 μM” value (BRD1) was 75 % Ctrl and the “% Ctrl @ 1 μM” value (PCAF) was 67 % Ctrl. The “% Ctrl @ 1 μM” value (BAZ^2B) was 75 % Ctrl, the “% Ctrl @ 1 μM” value (ATAD2A) was 94 % Ctrl and the “% Ctrl @ 1 μM” value (BRD2(2)) was 93 % Ctrl. The “% Ctrl @ 1 μM” value (BRD7 [2]) was 25 % Ctrl, the “% Ctrl @ 1 μM” value (BRDT(2)) was 83 % Ctrl and the “% Ctrl @ 1 μM” value (PBRM1(5)) was 89 % Ctrl. For the same compound, the “% Ctrl @ 1 μM” value (BAZ^2A) was 62 % Ctrl, the “% Ctrl @ 1 μM” value (SMARCA4) was 57 % Ctrl and the “% Ctrl @ 1 μM” value (TRIM24 (PHD, Bromo.)) was 98 % Ctrl. The “% Ctrl @ 1 μM” value (TAF1L(2)) was 80 % Ctrl, the “% Ctrl @ 1 μM” value (CECR2) was 14 % Ctrl and the “% Ctrl @ 1 μM” value (FALZ) was 79 % Ctrl. The “% Ctrl @ 1 μM” value (SMARCA2) was 70 % Ctrl, the “% Ctrl @ 1 μM” value (EP300) was 88 % Ctrl and the “% Ctrl @ 1 μM” value (BRDT(1)) was 90 % Ctrl. For the same compound, the “% Ctrl @ 1 μM” value (ATAD2B) was 81 % Ctrl, the “% Ctrl @ 1 μM” value (PBRM1(2)) was 79 % Ctrl and the bromodomain interaction profile [3] was “exclusive interaction with BRD9; also recorded: exclusively interacts with BRD9”. The “BRD7 degradation (immunoblot)” value (BRD7 [4]) was “not able to induce degradation of BRD7 at any of the concentrations” and the “% Ctrl @ 1 μM” value (TRIM33 (PHD, Bromo.)) was 100 % Ctrl.
